Ends that are not written are not given here.
Legend:
SKOV3 cells [1] = experiment: Tumor-sphere forming assay, SKOV3; format: cell-based, human; conditions: SKOV3, ultra-low binding dishes, two weeks; IRIS peptide 5 μM every third day
Experimental: Tumor-sphere: SKOV3 cells treated with scrambled or IRIS peptide (5 μM, added every third day) or expressing BRCA1-IRIS shRNA were grown in ultra-low binding culture dishes as single cells. […] BRCA1-IRIS silencing led to ˜7 fold decrease in tumor-sphere number (FIG. 43) and diameter (FIG. 43, inset), and an even more pronounced effect was detected with IRIS peptide (FIG. 43, and inset).
Tumor-sphere forming assay. Subconfluent monolayer cells were trypsinized and dissociated thoroughly to prepare single cell suspension. 1000 cells were plated, per well, onto ultra-low attachment 6-well plates (Corning Life Sciences, Union City, Calif.) in Dulbecco's modified Eagle's medium (DMEM)/F12 supplemented with 10% FBS, 2% B27 (Invitrogen), 10 ng/ml basic-fibroblast growth factor and 10 ng/mL epidermal growth factor. Cells were then incubated at 37° C. in humidified air with 10% CO2. 500 μl of medium was added to each well every 3 days, the medium containing the scrambled or IRIS peptide. […]

SKOV3 cells [2] = experiment: Invasion assay, matrigel-coated Boyden chambers, SKOV3; format: cell-based, human; conditions: 72 hours, IRIS peptide 5 μM, versus control-treated cells
Experimental: Invasion assay: Control (transfected with siLuc or treated with scrambled peptide, 5 μM) or shIRIS expressing SKOV3 cells were layered on top of matrigel-coated Boyden chambers. Some cultures were treated with 5 μM IRIS peptide. Seventy-two hours later, cells that invaded the matrigel and migrated to the lower side of the chambers were stained with Crystal Violet, counted and photographed. […] Similarly, BRCA1-IRIS silenced cells also lost their invasion ability by ˜75 fold (compare C to A in FIG. 36 and FIG. 35).
Cell Invasion assay. Growth reduced BD Matrigel™ invasion chamber (24 well plate, 8.0 μm, BD BioCoat™) was used to study the invasion ability of control and shBRCA1-IRIS cells. Cells (5×10^3) in complete medium (500 μl) were seeded on the upper compartment, and the lower compartment was filled with 750 μl of complete growth medium. Cells were incubated for 72 hours. The medium from the upper chamber was removed, and the cells on the upper surface of the membrane were removed carefully with a cotton swab. Invasive cells in lower side of the membrane were stained with crystal violet dye for 10 minutes. After staining, the upper chamber was rinse thoroughly with water until the water runs clear. Stained and dry chambers were visualized with microscope and photographed.

[3] = system: BRCA1-IRIS, TrkB, ErbB2, AKT, p-AKT, p-FOXO, Cyclin D1, Bcl-2 and survivin; experiment: Expression of growth and survival proteins in HOSE and HOSE/IRIS cells (Western); format: cell-based, human; conditions: IRIS peptide 5 μM, cisplatin 10 μM, combination 2.5 μM IRIS peptide + 5 μM cisplatin
Text: (§1) HOSE cells overexpressing IRIS show a higher degree of resistance to cisplatin than HOSE cells (compare blue to black line in FIG. 30).

[4] = system: HME/IRIS, MDA-MB-231 and MDA-MB-468 cells; experiment: Acini formation in matrigel-coated wells, breast cell lines; format: cell-based, human; conditions: day 10; peptide added every third day
Text: Next, it was considered whether BRCA1-IRIS depletion or inactivation could impact the aggressive behavior in breast cancer cell lines. BRCA1-IRIS silenced HME, HME/IRIS, MDA-MB-231 and MDA-MB-468 cells were layered on matrigel-coated wells. Moreover, parental cell lines were layered on the matrigel and grown in the presence of scrambled or IRIS peptide (added every third day). […] On day 10, HME acini became slightly bigger but remained round (FIG. 89, 1st column and FIG. 90). Acini formed by HME/IRIS, MDA-MB-231 and MDA-MB-468 were large/non-round on day 10 (FIG. 89, 1st column and FIGS. 90 and 91). BRCA1-IRIS depletion (FIG. 89, 2nd column and FIG. 91) or inactivation (FIG. 89, 3rd column and Suppl. FIG. 91) reverted this phenotype back to near normal “small/round” acini. Quantitatively, BRCA1-IRIS overexpression led to >3-fold increase in HME cells aggressiveness, and its depletion or inactivation reduced that phenotype in tumor cells by >3 fold (FIG. 90 and FIG. 91).

SKOV3 cells [5] = experiment: Three-dimensional (3D) growth / acini formation in matrigel, SKOV3; format: cell-based, human
BT549 cells = conditions: 48 h
Experimental: All cell lines were exposed to increasing concentrations of paclitaxel and BRCA1-IRIS expression, and cells' viability was then measured.
Cell viability measurement. Cell viability under different experimental conditions was determined using the MTS assay. Briefly, cells (2.5×10^4 cells per well) were seeded in 96-well plates and incubated overnight at 37° C. in 10% humidified CO2 atmosphere. The next day they were incubated with varying concentration of peptide, or inhibitors for 24 hours at 37° C. Cell viability was determined using cell Titer 96® Aqueous (Promega, Madison, Wis., USA) following manufacturer's instructions. Cell viability (%) was expressed as a ratio of treated cells to control cells×100. […] Each experiment was done in triplicate, repeated three separate times.

HOSE and HOSE/IRIS cells = experiment: Survival of HOSE versus HOSE/IRIS cells; format: cell-based, human; conditions: pre-treatment with 5 μM of IRIS peptide
Experimental: To test that, HOSE or HOSE/IRIS cells were incubated for 24 hours with 10 μM of ErbB2 (CP-724714), EGFR (Erlotinib), TrkB (K252a), JNK (SP600125), p38 (SB203580), ERK (PD98059) and PI3′K/AKT (LY294002) inhibitors. […] Taken together, BRCA1-IRIS overexpression activates AKT and ERK, thereby inactivating FOXO3a and promoting Cyclin D1, survivin, Bcl-2 and NF-κB expression and suppressing p27 expression (FIG. 15).
as §1
Cell viability measurement. Cell viability under different experimental conditions was determined using the MTS assay […]. Briefly, SKOV3, OVACAR3, HOSE and HOSE/IRIS cells (2.5×10^4 cells per well) were seeded in 96 well plates and incubated overnight at 37° C. in 10% humidified CO2 atmosphere in varying concentrations of IRIS peptide, or inhibitors of ErbB2 (CP-724714), EGFR (Erlotinib), TrkB (K252a), JNK (SP600125), p38 (SB203580), ERK (PD98059) and PI3′K/AKT (LY294002) inhibitors for 24 hours at 37° C. Cell Titer 96® Aqueous (Promega, Madison, Wis., USA) was used to measure viability following manufactures instructions. Cell viability (%) was expressed as a ratio to control cells×100. Growth inhibition was also determined by manually counting cells in five different microscopic fields. Change in cell numbers (fold) was expressed as a ratio to control cells×100. All experiments were done in at least triplicates, three different times. * is p≦0.05, ** is p≦0.001 and *** is p≦0.0001.

Sequence: RRIRPRPPRLPRPRPRPLPFPRPGIGTRFLCLPQSIYRSELNVYAFGEHILQISKYS [IRIS peptide]
- tumor-sphere formation (SKOV3 cells [1]): formed no tumor-spheres
- decreased ability to invade (SKOV3 cells [2]): ~100 fold
- expression of BRCA1-IRIS, TrkB, ErbB2, AKT, p-AKT, p-FOXO, Cyclin D1, Bcl-2 and survivin [3]: significant decrease
- reduction of aggressive (large/non-round) acini phenotype in tumor cells [4]: > 3 fold
- decrease in ability to form invasive structures in matrigel (SKOV3 cells [5]; SKOV3 cells): > 500 fold
- acini phenotype (SKOV3 cells [5]; SKOV3 in matrigel, day 10, peptide added every third day): slightly bigger/organized/round acini
- IC50 (BT549 cells): ~5 µM
- effect on survival (HOSE and HOSE/IRIS cells): decreased survival of HOSE and HOSE/IRIS cells
- sensitization to cisplatin (HOSE and HOSE/IRIS cells; then cisplatin): sensitized HOSE and HOSE/IRIS cells to low concentrations of cisplatin
